Where two headings read alike, the source gives them in different places.
Key:
[1] = test system: 5 strain cocktail of L. monocytogenes; settings: for inhibiting growth of L. monocytogenes, compared with sodium lactate alone or sodium lactate combined with sodium diacetate: 2° C., comparators at 2%; for growth of L. monocytogenes: entire 12 weeks of storage at 2° C.
[2] = test system: cocktail of 5 pathogenic strains of L. monocytogenes; settings: bologna slices surface contacted with 1 to 3% solutions, stored at 4° C. for 16 weeks
Source text: This experiment tests the residual anti-Listeria activity imparted by topical application of levulinate to ready-to-eat meat product. In this experiment, levulinic acid is topically applied to a ready-to-eat meat product, and residual anti-Listeria activity followed in a post-treatment challenge. Briefly, bologna slices are surface contacted (spray, wash, or dips) with solutions of 1 to 3% levulinic […] acid. The slices are inoculated with a cocktail of 5 pathogenic strains of L. monocytogenes. Samples are vacuum packaged and stored at 4° C. for 16 weeks. Pathogen counts are determined at 0, 2, 4, 8, 12 and 16 weeks.

[3] = test system: pathogenic bacteria including, but not limited to, Listeria monocytogenes; settings: 2% applied at 54° C. to carcass tissue, stored at 4° C. for 12 hours
Description: This experiment tests the extent of decontamination achieved by topical application of levulinic acid to carcass meats as compared to lactic and acetic acids. Briefly, carcass tissues samples from beef, pork, lamb, and poultry (or any other species) are inoculated with pathogenic bacteria including, but not limited to, Listeria monocytogenes. Levulinic acid (2%), lactic acid (2%), and acetic acid (2%) are independently applied at 54° C. to individual meat samples by washing, dipping, or spraying. Samples are vacuum packaged and stored at 4° C. for 12 hours, and pathogen counts are determined.

[4] = test system: pathogenic bacteria (including, but not limited to Listeria monocytogenes); settings: 2% applied at 54° C. to carcass tissues, stored 4 to 8° C. for 16 weeks
Description: This experiment tests the extent of residual anti-pathogenic activity of levulinic acid (2%) topically applied to carcasses by dipping, spraying, or washing as compared to lactic acid (2%) or acetic acid (2%). Briefly, levulinic acid, lactic acid and acetic acid are independently applied at 54° C. to samples of carcass tissues from beef, pork, lamb, and poultry (or any other species) by topical application. Samples are inoculated with pathogenic bacteria (including, but not limited to Listeria monocytogenes), vacuum packaged, and stored (4 to 8° C.) for 16 weeks. Pathogen counts are determined at 0, 2, 4, 8, 12, and 16 weeks.

[5] = test system: pathogenic bacteria (including, but not limited to, Listeria monocytogenes); settings: 0.5, 1.0, 2.0% applied at temperatures greater than 54° C. (68, 77° C.); comparators 2% at 54° C.
Description: Samples are vacuum packaged and stored at 4° C. for 12 hours, and pathogen counts are determined.

[6] = test system: pathogenic bacteria (including, but not limited to, Listeria monocytogene); settings: addition or application to any food, stored at 4 to 8° C. for up to 16 weeks
Description: Pathogen counts are determined at 0, 2, 4, 8, 12, and 16 weeks.

[7] = test system: 5 strain cocktail of L. monocytogenes; settings: for inhibition of growth of L. monocytogenes, compared with sodium lactate alone or sodium lactate combined with sodium diacetate: 2° C., comparators at 2%; for growth of L. monocytogenes: entire 12 weeks of storage at 2° C.

CC(=O)CCC(=O)O [levulinate]
peak levels of growth of L. monocytogenes ([1]; 1% in turkey product, after 12 weeks of storage at 2° C.): greatly inhibited
growth of L. monocytogenes compared to the control ([1]; 1% in turkey product, vacuum packaged, stored at 2° C., two trials averaged): delayed growth

CC(=O)CCC(=O)O [levulinic acid, 4-oxopentanoic acid]
proliferation of Listeria bacteria in treated meat samples [2]: significant decrease
decontamination of pathogens as compared to lactic acid and acetic acid [3]: equal or greater decontamination
residual anti-pathogenic activity as compared to lactic acid and acetic acid [4]: equal or greater residual anti-pathogenic activity
initial surface decontamination activity against pathogenic bacteria as compared to fixed concentrations of lactic acid or acetic acid at a fixed temperature [5]: significant initial surface decontamination activity
initial decontamination and residual activity against pathogenic bacteria [6]: significant initial decontamination and residual activity

CC(=O)CCC(=O)[O-].[Na+] [sodium levulinate]
inhibiting growth of L. monocytogenes, compared with sodium lactate alone or sodium lactate combined with sodium diacetate ([1]; 2% in turkey product): more effective
growth of L. monocytogenes ([1]; 2% in turkey product): completely inhibited growth
inhibiting growth of L. monocytogenes, compared with sodium lactate alone or sodium lactate combined with sodium diacetate ([1]; 3% in turkey product): more effective
growth of L. monocytogenes ([1]; 3% in turkey product): completely inhibited growth
inhibition of growth of L. monocytogenes, compared with sodium lactate alone or sodium lactate combined with sodium diacetate ([7]; 1% in bologna): as inhibitory
growth of L. monocytogenes ([7]; 1% in bologna): completely inhibited growth
inhibition of growth of L. monocytogenes, compared with sodium lactate alone or sodium lactate combined with sodium diacetate ([7]; 2% in bologna): as inhibitory
growth of L. monocytogenes ([7]; 2% in bologna): completely inhibited growth
inhibition of growth of L. monocytogenes, compared with sodium lactate alone or sodium lactate combined with sodium diacetate ([7]; 3% in bologna): as inhibitory
growth of L. monocytogenes ([7]; 3% in bologna): completely inhibited growth

Source: patent US20080045592A1, “Method of inhibiting growth and proliferation of listeria monocytogenes using levulinate” (Utah State University, priority 2006, published 2008)
